The values that follow come from paper PMC4446597, “Novel Adociaquinone Derivatives from the Indonesian Sponge Xestospongia sp” (Marine Drugs, 2015).

Counter-ions that a name gives are not always drawn.

One test has as its target CDK1/cyclin B. In words: Protein kinase assay, CDK1/cyclin B. Particulars: 15 µM ATP, 30 °C, triplicates. In kind it is biochemical. The protocol:
(§1) Evaluation of the protein kinase inhibitory activity was performed in vitro as previously described. Briefly, homogenization buffer: 60 mM β-glycerophosphate, 15 mM p-nitrophenylphosphate, 25 mM Mops (pH 7.2), 15 mM EGTA, 15 mM MgCl2, 1 mM dithiothreitol, 1 mM sodium vanadate, 1 mM NaF, 1 mM phenylphosphate, 10 µg leupeptin mL^−1, 10 µg aprotinin mL^−1, 10 µg soybean trypsin inhibitor mL^−1, and 100 µg benzamidine. Buffer A: 10 mM MgCl2, 1 mM EGTA, 1 mM dithiothreitol, 25 mM Tris-HCl pH 7.5, 50 µg heparin mL^−1. Buffer C: homogenization buffer but 5 mM EGTA, no NaF and no protease inhibitors. Kinase activities were assayed in triplicates in buffer A or C at 30 °C, at a final ATP concentration of 15 µM. The order of mixing the reagents was: buffers, substrate, enzyme, inhibitor and ^33P-radiolabelled ATP. Isolated compounds were tested against a panel of eight kinases; namely cyclin-dependent kinase 1 (CDK1/cyclin B), cyclin-dependent kinase 2 (CDK2/cyclin A), cyclin-dependent kinase 5 (CDK5/p25), cyclin-dependent kinase 9 (CDK9/cyclin T), casein kinase 1 (CK1), Cdc2-like kinase 1 (CLK1), dual-specificity tyrosine-(Y)-phosphorylation regulated kinase 1A (DYRK1A) and glycogen synthase kinase-3α/β (GSK-3α/β).

The target in a further test is casein kinase 1 (CK1). Nature of the test: Protein kinase assay, casein kinase 1. In kind it is biochemical. Particulars: 15 µM ATP, 30 °C, triplicates. The protocol:
as §1

A further test concerns the target CDK9/cyclin T (Homo sapiens, UniProt P50750). In words: Protein kinase assay, CDK9/cyclin T. Particulars: 15 µM ATP, 30 °C, triplicates. In kind it is biochemical. The protocol:
as §1

The next test concerns the target CDK2/cyclin A (Homo sapiens, UniProt P24941). Nature of the test: Protein kinase assay, CDK2/cyclin A. Particulars: 15 µM ATP, 30 °C, triplicates. In kind it is biochemical. The protocol: as §1
The target of a further test is CDK5/p25 (Homo sapiens, UniProt Q00535). Nature of the test: Protein kinase assay, CDK5/p25. In kind it is biochemical. The note with it: 15 µM ATP, 30 °C, triplicates. The protocol: as §1
The target of test [1] is glycogen synthase kinase-3α/β (GSK-3α/β). Nature of the test: Protein kinase assay, GSK-3α/β. In kind it is biochemical. Particulars: 15 µM ATP, 30 °C, triplicates, read-out: GSK3 IC50. The protocol:
as §1

In a further test the test system is topoisomerase II. Set-up: method as in PMID 7473578. The note with it: catalytic DNA unwinding and decatenation assays, KSDS assay; cited from earlier work.
The target in the next test is DYRK1A (Rattus norvegicus, UniProt Q63470). Nature of the test: Protein kinase assay, DYRK1A. In kind it is biochemical. The protocol:
as §1

Test [2] relates to Staphylococcus aureus ATCC 6538. In words: Antibacterial assay, growth inhibition in liquid culture. In kind it is cell-based. Particulars: ATCC6538, S. aureus ATCC 6538, OD 620 nm after 16 to 18 h, read-out: antibacterial activity IC50 against Staphylococcus aureus. The protocol:
The antibacterial activity assay was conducted on the bacterial strain Gram-positive Staphylococcus aureus ATCC 6538 and Gram-negative Escherichia coli ATCC 8739 evaluated in vitro by determining the IC50. A pre-culture of 5 mL LB (Luria Bertoni) medium was prepared by inoculating a colony of the bacterial strain and was incubated at 37 °C with stirring overnight. The concentration of the pre-culture was assessed by measuring the optical density OD at 620 nm and adjusted by dilution to obtain a suspension of 0.03 OD. The […] was determined by a liquid test in 96-well-plates. A quantity of 200 µL of the bacterial suspension was distributed in each well and 10 µL of the extracts, fractions or pure compounds solutions in DMSO (10, 5 and 2 mg/mL, respectively) were added in triplicate. The 96 well-plates were incubated at 30 °C for 16 to 18 h with shaking (450 rpm). The optical density of the wells was measured at 620 nm and the results were interpreted by calculating the percentage of growth inhibition in each well using the formula: % inhibition = 100 − (DOS − DOB)/(DOT − DOB) ×100 where T = bacterial suspension without test sample, B = culture medium without bacteria and S = bacterial suspension test sample. Ampicillin and chloramphenicol were used as positive control against S. aureus and E. coli, respectively.

Test [3] concerns the target yeast farnesyltransferase. On the set-up: method as in PMID 20634081. Particulars: read-out: IC50 against yeast farnesyltransferase; cited from earlier work.
Test [4] deals with human farnesyltransferase. Set-up: method as in PMID 20634081. The note with it: read-out: IC50 against human farnesyltransferase; cited from earlier work.

Sequence of CDK5/p25 (Q00535 whole entry, species assumed): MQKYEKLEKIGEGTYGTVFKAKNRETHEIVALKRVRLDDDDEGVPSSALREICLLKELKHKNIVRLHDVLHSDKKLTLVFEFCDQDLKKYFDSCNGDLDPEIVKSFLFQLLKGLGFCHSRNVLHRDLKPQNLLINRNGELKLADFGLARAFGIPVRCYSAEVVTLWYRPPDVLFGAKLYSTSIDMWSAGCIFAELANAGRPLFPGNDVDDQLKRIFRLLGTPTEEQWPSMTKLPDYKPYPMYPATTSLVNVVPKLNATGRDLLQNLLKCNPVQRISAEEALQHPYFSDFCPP
Sequence of CDK5/p25 (Q15078 99-307 partner limits assumed, species assumed): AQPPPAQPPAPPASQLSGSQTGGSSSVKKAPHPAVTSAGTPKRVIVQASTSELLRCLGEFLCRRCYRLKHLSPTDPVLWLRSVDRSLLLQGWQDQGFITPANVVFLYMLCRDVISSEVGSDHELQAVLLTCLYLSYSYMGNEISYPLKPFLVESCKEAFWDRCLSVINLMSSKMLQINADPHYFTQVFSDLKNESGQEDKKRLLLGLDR
Sequence of CDK9/cyclin T (P50750 whole entry, species assumed): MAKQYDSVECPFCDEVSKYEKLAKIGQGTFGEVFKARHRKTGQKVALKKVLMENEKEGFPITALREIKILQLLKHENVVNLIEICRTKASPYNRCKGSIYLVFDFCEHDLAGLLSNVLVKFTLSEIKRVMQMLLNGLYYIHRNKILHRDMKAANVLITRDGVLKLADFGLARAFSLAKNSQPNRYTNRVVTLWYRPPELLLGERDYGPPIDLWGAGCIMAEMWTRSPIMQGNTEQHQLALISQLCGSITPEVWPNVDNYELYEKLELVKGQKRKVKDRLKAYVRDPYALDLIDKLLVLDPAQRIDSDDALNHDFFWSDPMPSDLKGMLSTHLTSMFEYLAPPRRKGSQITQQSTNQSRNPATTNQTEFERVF
Sequence of CDK9/cyclin T (O60563 whole entry partner, species assumed): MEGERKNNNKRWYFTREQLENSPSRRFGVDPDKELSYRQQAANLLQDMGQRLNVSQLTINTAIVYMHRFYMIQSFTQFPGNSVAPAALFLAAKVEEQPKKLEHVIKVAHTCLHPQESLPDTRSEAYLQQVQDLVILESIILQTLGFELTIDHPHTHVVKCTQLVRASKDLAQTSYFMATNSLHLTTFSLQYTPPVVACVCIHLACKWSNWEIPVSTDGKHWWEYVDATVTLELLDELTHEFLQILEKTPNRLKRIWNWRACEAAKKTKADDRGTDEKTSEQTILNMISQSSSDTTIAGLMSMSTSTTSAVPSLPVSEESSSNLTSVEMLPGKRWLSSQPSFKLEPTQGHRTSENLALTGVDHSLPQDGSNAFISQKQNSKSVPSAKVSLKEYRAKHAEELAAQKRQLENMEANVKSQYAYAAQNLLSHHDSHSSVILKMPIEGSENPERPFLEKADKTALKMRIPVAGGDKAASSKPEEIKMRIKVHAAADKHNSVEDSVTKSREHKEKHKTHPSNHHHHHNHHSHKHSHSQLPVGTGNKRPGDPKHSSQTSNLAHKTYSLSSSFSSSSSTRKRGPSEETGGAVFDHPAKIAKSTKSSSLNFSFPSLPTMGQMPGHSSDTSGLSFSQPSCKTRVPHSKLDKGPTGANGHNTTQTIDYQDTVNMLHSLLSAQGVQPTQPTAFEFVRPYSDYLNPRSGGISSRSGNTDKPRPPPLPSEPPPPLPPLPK

The IC50 is the concentration at which inhibition is half-maximal. Turning to `C[C@@]12CCCc3coc(c31)C(=O)c1cc3c(cc12)C(=O)C=C(NCCS(=O)(=O)O)C3=O` [Compound 8, secoadociaquinone B], the IC50 against CDK1/cyclin B is above 10 µM; at casein kinase 1 (CK1) it was above 10 µM; on CDK9/cyclin T it was above 10 µM; against CDK2/cyclin A, above 10 µM; against CDK5/p25, 6 µM; in [1], above 10 µM.
For the compound adociaquinone A [Compound 5], the “inhibition of topoisomerase II (in words)” value with topoisomerase II was “inhibition of topoisomerase II”.
As to `C[C@@]12CCCc3coc(c31)C(=O)c1cc3c(cc12)C(=O)C1=C(NCCS1(=O)=O)C3=O` [Compound 6, adociaquinone B], the IC50 on CDK1/cyclin B was above 10 µM; against casein kinase 1 (CK1), above 10 µM; at CDK9/cyclin T it was 3 µM; on CDK2/cyclin A it was above 10 µM; at CDK5/p25 it was above 10 µM; in test [1], above 10 µM. The “inhibition of topoisomerase II (in words)” value in the test with topoisomerase II is listed as “inhibition of topoisomerase II”.
As to `CO[C@]12OC(O)C3=C1[C@@](C)(CCC3=O)c1cc3c(OS(=O)(=O)O)ccc(O)c3cc1C2=O` (stereo partly drawn) [Compound 13], the IC50 (against CDK1/cyclin B; at casein kinase 1 (CK1); at CDK9/cyclin T; against CDK2/cyclin A; against CDK5/p25; in test [1]) was above 10 µM in each case. Moreover, on DYRK1A, the “activity against DYRK1A (in words)” value was “marginal activity”.
In the case of `C[C@@]12CCCc3coc(c31)C(=O)c1cc3c(O)ccc(OS(=O)(=O)O)c3cc12` [Compound 11, xestoquinol sulfate], the IC50 in [2] was 125 µM.
As to `CC1=CCCC2(C)C1=C(O)C(=O)c1cc3c(cc12)C(=O)C=CC3=O` (stereo not drawn) [Orhalquinone], the IC50 in [3] and in test [4] was 0.4 µM throughout.
For the compound `C[C@@]12CCC(=O)c3coc(c31)C(=O)c1cc3c(O)ccc(OS(=O)(=O)O)c3cc12` [Compound 12], the IC50 against CDK1/cyclin B was 4.3 µM; on casein kinase 1 (CK1), 5.2 µM; at CDK9/cyclin T it was 0.5 µM; against CDK2/cyclin A it was 7.5 µM; on CDK5/p25, 2.2 µM; in [1] it was 0.61 µM.
